Results on one compound are retold here after patent US8962530B2, “Inflammatory bowel disease therapies” (Regents of the University of Colorado, priority 2007, dated 2015).

Test [1] deals with TNBS-induced colitis. The test can be described thus: Intestinal permeability, FITC-labeled-dextran method, TNBS-colitis model. The format is in vivo. Particulars: TNBS-colitis mice; 60 mg/kg i.p.; FITC-dextran gavage after 20 hours, serum four hours later; compared to vehicle control. The source says: The effectiveness of compounds and methods of the present invention on intestinal barrier protection and treatment of inflammatory bowel disease (IBD) in TNBS (2,4,6-trinitrobenzene sulfonic acid)-induced colitis, an established animal model of inflammatory bowel disease, was examined. TNBS-induced colitis was induced in mice using a modification of techniques previously described. (See Morris et al (1989) Gastroenterology 96:795-803; Boirivant et al (1998) J Exp Med 188:1929-1939; Karhausen et al (2004) J Clin Invest 114:1098-1106.) Mice were shaved on the abdomen (causing total depletion of hair and microlesions) and were then sensitized to subsequent treatment by epicutaneous application of 1% TNBS (Sigma-Aldrich) in 100% ethanol on day minus 7. Seven days later, on day 0, animals were sedated with a 2.5% Tribromoethanol solution in phosphate-buffered saline (14 μl/g body weight), followed by intrarectal administration of a 2.5% TNBS solution in 50% ethanol (5 μl/g body weight). Administration of the 2.5% TNBS solution was carried out using an epidural catheter ([…] Plus Epidural Catheter, Arrow International), which was inserted approximately 6 cm ab ano followed by release of the TNBS solution. […] Four hours later, changes in intestinal permeability were determined by measurement of serum FITC-dextran levels.

Test [2] deals with TNBS-induced colitis. In words: Histological analysis of colon sections in TNBS-colitis model. The test is classed as in vivo. To be noted: TNBS-colitis mice; 40 mg/kg i.p. on day minus 1, day 0, day 1; day three; compared to vehicle-control treated TNBS-colitis animals. The source says:
The effectiveness of compounds and methods of the present invention on intestinal barrier protection and treatment of inflammatory bowel disease (IBD) in TNBS (2,4,6-trinitrobenzene sulfonic acid)-induced colitis, an established animal model of inflammatory bowel disease, was examined. TNBS-induced colitis was induced in mice using a modification of techniques previously described. (See Morris et al (1989) Gastroenterology 96:795-803; Boirivant et al (1998) J Exp Med 188:1929-1939; Karhausen et al (2004) J Clin Invest 114:1098-1106.) Mice were shaved on the abdomen (causing total depletion of hair and microlesions) and were then sensitized to subsequent treatment by epicutaneous application of 1% TNBS (Sigma-Aldrich) in 100% ethanol on day minus 7. Seven days later, on day 0, animals were sedated with a 2.5% Tribromoethanol solution in phosphate-buffered saline (14 μl/g body weight), followed by intrarectal administration of a 2.5% TNBS solution in 50% ethanol (5 μl/g body weight). Administration of the 2.5% TNBS solution was carried out using an epidural catheter ([…] Plus Epidural Catheter, Arrow International), which was inserted approximately 6 cm ab ano followed by release of the TNBS solution. To ensure the continuance of the TNBS solution in the colon, mice were suspended in a vertical position for at least 5 minutes following administration. Vehicle control animals received a corresponding volume of 50% ethanol solution alone. Unless otherwise indicated, compounds of the invention were administered to animals intraperitoneally (i.p.) as a solution. Animals were dosed with compound (40 mg/kg/day or 20 mg/kg/day) on day minus 1, day 0, and day 1, or exclusively on day 0 and day 1, by i.p. injection. On day 0, TNBS treatment was performed on animals 4 hours after injection of compound. The effect of methods and compounds of the present invention on structural changes of the colon associated with inflammatory bowel disease was studied using an established animal model of inflammatory bowel disease (described above in Example 1). […]

With `O=C(O)CNC(=O)c1ncc2cc(Sc3ccccc3)ccc2c1O` [Compound A, [(4-Hydroxy-7-phenylsulfanyl-isoquinoline-3-carbonyl)-amino]-acetic acid], in the test on TNBS-induced colitis [1], the “serum FITC-dextran levels (intestinal permeability)” value is “lower levels of serum FITC-dextran”. In the test on TNBS-induced colitis [2], the “inflammatory infiltrate in colon sections” value is recorded as “reduction in inflammatory infiltrate”, the “tissue architecture in colon sections” value is “overall general preservation of tissue architecture” and the “villous blunting in colon sections” value is recorded as “reduction in villous blunting”.
